Laboratory results as given in ChEMBL document CHEMBL4507291 (2021).

Assays:
Homo sapiens = species: Homo sapiens; test: Chemokine CCR1 Eurofins-Panlabs radioligand binding assay; parameters: ligand concentration 0.1 nM; conditions: Compound concentration 10.0 uM
[1] = molecular target: T1, Tyrosine-protein kinase Mer (Homo sapiens) (UniProt Q12866); test: MERTK (cMER) Kinase screen; conditions: Compound concentration 1.0 uM
T1 sequence (whole entry): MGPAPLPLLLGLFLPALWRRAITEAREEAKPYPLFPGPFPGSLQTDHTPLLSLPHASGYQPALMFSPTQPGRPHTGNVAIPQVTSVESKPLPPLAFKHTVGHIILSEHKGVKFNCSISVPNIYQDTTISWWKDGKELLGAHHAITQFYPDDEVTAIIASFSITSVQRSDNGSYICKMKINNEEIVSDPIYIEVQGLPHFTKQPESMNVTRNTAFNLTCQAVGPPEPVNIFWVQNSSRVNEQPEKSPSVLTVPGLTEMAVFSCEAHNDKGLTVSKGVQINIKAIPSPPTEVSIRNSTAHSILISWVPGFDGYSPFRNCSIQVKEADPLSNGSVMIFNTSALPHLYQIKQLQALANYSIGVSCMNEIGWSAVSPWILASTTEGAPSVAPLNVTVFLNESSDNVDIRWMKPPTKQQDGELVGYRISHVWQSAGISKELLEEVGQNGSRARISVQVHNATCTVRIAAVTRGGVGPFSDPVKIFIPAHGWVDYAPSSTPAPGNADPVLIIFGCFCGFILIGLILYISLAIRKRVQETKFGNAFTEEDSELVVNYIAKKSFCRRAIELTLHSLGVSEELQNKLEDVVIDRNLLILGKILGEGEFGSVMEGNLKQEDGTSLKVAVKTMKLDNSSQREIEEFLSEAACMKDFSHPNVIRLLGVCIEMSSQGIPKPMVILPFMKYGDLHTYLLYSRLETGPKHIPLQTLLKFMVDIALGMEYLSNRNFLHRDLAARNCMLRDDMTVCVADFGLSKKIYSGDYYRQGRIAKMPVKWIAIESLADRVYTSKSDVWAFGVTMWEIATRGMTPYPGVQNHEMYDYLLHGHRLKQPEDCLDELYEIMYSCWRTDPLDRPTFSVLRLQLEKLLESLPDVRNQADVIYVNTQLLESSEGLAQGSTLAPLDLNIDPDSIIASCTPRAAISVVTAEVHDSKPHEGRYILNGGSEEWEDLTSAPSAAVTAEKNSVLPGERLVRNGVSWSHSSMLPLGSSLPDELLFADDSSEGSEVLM

[2] = molecular target: T2, Inhibitor of nuclear factor kappa-B kinase subunit alpha (Homo sapiens) (UniProt O15111); test: CHUK (IKK alpha) Kinase screen; conditions: Compound concentration 1.0 uM
T2 sequence (whole entry): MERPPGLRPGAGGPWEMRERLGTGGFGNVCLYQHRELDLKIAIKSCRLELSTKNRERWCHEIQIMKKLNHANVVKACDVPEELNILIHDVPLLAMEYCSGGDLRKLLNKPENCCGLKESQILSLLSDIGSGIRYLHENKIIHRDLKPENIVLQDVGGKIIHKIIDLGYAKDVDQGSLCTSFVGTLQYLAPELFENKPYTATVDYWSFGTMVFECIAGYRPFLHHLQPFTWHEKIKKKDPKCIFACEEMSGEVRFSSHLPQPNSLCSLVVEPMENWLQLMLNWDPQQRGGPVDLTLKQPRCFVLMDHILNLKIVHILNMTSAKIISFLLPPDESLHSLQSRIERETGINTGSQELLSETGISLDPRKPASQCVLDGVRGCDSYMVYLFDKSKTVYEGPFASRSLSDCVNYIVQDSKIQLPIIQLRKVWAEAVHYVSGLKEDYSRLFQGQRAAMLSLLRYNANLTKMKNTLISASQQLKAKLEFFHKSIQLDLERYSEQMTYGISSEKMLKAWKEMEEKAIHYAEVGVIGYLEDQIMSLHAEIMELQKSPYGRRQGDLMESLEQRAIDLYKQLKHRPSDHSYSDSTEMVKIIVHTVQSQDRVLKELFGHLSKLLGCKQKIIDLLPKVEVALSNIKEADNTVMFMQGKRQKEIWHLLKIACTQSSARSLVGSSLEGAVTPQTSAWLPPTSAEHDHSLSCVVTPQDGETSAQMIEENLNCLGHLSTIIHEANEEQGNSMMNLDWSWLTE

[3] = molecular target: AMPK alpha2/beta1/gamma1 (Homo sapiens) (UniProt P54646+P54619+Q9Y478); test: AMPK A2/B1/G1 Kinase screen; format: protein-complex assay; conditions: Compound concentration 1.0 uM
[4] = molecular target: Melanocyte-stimulating hormone receptor (Homo sapiens) (UniProt Q01726); test: Melanocortin MC1 Eurofins-Panlabs radioligand binding assay; conditions: Compound concentration 10.0 uM
[5] = molecular target: Ribosomal protein S6 kinase alpha-3 (Homo sapiens) (UniProt P51812); test: RPS6KA3 (RSK2) Kinase screen; conditions: Compound concentration 1.0 uM
[6] = molecular target: 5-hydroxytryptamine receptor 6 (Homo sapiens) (UniProt P50406); test: Inhibition of Serotonin (5-Hydroxytryptamine) 5-HT6 at 10 µM in the Eurofins-Panlabs radioligand binding assay (Eurofins_assay_272200); conditions: Compound concentration 10.0 uM
[7] = molecular target: T3, Serine/threonine-protein kinase 17A (Homo sapiens) (UniProt Q9UEE5); test: STK17A (DRAK1) Kinase screen; conditions: Compound concentration 1.0 uM
T3 sequence (whole entry): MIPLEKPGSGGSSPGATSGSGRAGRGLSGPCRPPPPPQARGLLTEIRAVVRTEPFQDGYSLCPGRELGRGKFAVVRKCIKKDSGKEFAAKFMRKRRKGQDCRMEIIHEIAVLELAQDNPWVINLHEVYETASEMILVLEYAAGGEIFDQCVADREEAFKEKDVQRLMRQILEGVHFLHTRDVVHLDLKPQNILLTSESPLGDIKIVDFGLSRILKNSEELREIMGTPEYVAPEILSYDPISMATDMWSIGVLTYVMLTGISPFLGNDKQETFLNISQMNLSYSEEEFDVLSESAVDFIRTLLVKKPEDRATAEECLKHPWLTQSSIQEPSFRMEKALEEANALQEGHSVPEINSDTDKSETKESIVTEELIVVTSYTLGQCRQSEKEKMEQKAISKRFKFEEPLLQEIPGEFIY

[8] = molecular target: Platelet-derived growth factor receptor beta (Homo sapiens) (UniProt P09619); test: PDGFRB (PDGFR beta) Kinase screen; conditions: Compound concentration 1.0 uM
[9] = molecular target: Calcium/calmodulin-dependent protein kinase type II subunit alpha (Homo sapiens) (UniProt Q9UQM7); test: CAMK2A (CaMKII alpha) Kinase screen; conditions: Compound concentration 1.0 uM

Measured: inhibition

Sequence of AMPK alpha2/beta1/gamma1 (Homo sapiens) (P54619 whole entry partner): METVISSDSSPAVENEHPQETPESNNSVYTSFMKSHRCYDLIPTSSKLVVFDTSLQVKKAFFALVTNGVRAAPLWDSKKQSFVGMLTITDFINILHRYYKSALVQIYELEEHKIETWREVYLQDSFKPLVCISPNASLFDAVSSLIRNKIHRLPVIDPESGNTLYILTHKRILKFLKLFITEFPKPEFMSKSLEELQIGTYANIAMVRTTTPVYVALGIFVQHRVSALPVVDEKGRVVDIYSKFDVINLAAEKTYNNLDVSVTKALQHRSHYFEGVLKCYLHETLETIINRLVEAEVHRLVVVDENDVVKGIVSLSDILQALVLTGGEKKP
Sequence of AMPK alpha2/beta1/gamma1 (Homo sapiens) (P54646 whole entry): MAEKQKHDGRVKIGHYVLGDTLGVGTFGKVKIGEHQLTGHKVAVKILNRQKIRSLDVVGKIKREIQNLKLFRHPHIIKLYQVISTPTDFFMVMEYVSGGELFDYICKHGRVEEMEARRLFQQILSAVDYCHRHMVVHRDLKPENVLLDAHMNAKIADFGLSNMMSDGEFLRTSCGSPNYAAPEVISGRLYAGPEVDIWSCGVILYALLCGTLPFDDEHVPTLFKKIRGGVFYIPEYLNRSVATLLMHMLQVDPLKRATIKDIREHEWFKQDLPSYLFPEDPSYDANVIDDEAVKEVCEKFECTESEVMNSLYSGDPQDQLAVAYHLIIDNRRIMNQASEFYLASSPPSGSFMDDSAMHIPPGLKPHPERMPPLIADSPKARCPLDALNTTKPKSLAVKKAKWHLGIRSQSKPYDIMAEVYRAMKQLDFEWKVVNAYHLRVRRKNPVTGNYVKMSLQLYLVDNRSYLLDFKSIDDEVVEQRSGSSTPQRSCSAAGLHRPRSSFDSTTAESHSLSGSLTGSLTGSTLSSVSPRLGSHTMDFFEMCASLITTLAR
Sequence of AMPK alpha2/beta1/gamma1 (Homo sapiens) (Q9Y478 2-270 partner limits assumed): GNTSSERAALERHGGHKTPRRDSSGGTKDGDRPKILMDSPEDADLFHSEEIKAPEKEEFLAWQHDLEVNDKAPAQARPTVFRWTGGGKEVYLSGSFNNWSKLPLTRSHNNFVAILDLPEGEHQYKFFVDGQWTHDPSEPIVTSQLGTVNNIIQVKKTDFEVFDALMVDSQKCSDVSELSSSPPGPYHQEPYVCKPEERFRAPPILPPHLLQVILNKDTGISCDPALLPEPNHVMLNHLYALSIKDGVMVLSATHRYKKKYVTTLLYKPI
Sequence of 5-hydroxytryptamine receptor 6 (Homo sapiens) (P50406 whole entry): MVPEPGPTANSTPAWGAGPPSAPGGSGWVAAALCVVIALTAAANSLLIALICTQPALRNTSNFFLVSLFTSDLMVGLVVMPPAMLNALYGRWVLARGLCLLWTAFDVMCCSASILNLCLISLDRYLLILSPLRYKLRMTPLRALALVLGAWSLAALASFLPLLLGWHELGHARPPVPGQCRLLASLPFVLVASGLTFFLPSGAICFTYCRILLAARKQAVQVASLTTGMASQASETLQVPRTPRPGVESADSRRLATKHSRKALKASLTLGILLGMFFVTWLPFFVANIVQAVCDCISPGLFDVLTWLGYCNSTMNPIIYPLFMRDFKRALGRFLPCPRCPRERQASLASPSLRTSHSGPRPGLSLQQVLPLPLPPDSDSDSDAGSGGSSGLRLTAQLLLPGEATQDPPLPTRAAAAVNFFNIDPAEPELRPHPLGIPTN
Sequence of Ribosomal protein S6 kinase alpha-3 (Homo sapiens) (P51812 whole entry): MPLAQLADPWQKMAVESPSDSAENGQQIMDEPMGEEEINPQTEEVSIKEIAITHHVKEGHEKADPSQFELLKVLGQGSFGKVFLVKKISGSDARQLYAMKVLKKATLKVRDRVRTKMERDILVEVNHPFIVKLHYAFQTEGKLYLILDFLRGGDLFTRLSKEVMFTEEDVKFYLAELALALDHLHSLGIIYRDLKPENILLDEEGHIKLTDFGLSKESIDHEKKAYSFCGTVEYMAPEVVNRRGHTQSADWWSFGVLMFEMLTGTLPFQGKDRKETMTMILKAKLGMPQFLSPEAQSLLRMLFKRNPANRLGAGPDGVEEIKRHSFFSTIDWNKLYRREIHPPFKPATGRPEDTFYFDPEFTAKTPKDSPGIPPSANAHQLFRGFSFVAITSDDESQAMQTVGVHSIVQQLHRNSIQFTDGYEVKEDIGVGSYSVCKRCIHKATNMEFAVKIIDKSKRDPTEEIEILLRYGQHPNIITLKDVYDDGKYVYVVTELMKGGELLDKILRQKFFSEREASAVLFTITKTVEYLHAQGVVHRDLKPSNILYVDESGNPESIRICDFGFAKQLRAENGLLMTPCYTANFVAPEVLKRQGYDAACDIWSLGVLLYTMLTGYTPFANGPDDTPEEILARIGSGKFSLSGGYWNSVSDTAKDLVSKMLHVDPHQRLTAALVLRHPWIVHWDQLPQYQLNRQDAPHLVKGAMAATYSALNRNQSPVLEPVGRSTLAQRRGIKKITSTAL
Sequence of Platelet-derived growth factor receptor beta (Homo sapiens) (P09619 whole entry): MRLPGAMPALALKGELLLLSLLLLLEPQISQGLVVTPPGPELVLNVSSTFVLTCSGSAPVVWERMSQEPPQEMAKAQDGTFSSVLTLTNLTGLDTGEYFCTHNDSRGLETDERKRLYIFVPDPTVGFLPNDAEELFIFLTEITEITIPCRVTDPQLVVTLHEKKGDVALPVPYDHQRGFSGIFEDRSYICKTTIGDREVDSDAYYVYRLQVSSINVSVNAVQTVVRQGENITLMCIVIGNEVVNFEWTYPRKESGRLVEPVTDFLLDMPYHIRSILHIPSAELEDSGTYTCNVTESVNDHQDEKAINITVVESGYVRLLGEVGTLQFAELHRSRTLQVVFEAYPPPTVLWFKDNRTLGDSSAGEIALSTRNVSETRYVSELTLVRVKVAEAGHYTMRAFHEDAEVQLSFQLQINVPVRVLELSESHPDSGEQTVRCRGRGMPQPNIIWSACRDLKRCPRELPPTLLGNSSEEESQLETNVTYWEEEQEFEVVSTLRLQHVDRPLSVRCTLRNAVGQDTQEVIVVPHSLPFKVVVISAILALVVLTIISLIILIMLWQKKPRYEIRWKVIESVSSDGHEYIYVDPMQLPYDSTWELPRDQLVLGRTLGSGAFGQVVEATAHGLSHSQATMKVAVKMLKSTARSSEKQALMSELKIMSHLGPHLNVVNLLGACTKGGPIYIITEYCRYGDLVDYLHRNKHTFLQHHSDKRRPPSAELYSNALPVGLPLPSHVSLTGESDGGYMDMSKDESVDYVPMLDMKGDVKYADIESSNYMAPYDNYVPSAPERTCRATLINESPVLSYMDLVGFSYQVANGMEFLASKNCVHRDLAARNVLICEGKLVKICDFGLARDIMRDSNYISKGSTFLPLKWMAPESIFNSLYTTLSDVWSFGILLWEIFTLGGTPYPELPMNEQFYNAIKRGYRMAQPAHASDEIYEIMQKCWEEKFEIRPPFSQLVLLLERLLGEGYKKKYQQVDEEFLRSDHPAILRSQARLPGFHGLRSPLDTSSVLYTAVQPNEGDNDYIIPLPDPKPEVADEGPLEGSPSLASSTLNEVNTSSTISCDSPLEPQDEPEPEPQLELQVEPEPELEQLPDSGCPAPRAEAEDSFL
Sequence of Melanocyte-stimulating hormone receptor (Homo sapiens) (Q01726 whole entry, looked up): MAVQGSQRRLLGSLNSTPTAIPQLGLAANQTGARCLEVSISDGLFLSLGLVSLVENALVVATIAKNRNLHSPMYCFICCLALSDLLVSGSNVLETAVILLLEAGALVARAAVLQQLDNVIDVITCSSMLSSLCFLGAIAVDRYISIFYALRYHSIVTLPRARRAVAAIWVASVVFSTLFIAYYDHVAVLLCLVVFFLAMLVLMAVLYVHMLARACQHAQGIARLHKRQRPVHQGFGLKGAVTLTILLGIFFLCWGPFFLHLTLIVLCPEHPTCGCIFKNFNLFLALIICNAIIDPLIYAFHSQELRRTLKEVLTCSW
Sequence of Calcium/calmodulin-dependent protein kinase type II subunit alpha (Homo sapiens) (Q9UQM7 whole entry): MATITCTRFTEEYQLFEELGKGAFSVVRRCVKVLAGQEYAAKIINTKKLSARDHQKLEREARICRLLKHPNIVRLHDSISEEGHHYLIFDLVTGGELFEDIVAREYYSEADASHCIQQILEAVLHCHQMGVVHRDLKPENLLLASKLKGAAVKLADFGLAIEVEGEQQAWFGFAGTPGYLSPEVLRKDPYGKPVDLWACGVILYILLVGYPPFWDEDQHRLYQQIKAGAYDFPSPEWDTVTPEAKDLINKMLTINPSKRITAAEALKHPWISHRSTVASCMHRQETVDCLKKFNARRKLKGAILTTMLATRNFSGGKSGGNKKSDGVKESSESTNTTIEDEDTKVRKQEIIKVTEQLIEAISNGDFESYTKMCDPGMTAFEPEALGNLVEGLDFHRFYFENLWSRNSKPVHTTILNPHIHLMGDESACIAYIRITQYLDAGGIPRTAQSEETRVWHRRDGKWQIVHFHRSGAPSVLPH

C[C@@H]1CN(c2cc(-c3n[nH]c4ccc(OC5(C)CC5)cc34)ncn2)C[C@H](C)O1 [MLi-2]
inactive: Homo sapiens -3% | [1] 4.76% | [2] 8.17% | [3] 5.68% | [4] -1% | [5] 3.91% | [6] 3% | [7] -2.27% | [8] 6.43% | [9] 7.96%
